Measurements from patent US11905265B1, “3,4-dimethoxy-n′-(2-(5-phenyl-1,3,4-oxadiazol-2ylthio)acetoxy)benzimidamide as an antimicrobial compound” (KING FAISAL UNIVERSITY, priority 2023, dated 2024).

Assays:
Format in all cases: cell-based
Aspergillus flavus = assay: Agar plate disc-diffusion, antifungal activity (inhibition zone); settings: Sabouraud's dextrose agar, 72 hours
Procedure: (§1) The agar plate disc-diffusion method was applied. […] The discs were then placed onto the surface of agar plates (nutrient agar for bacteria and Sabouraud's dextrose agar for fungi) seeded with the test organism. Each plate contained 15 mL of the agar medium, previously seeded with 0.2 mL of the broth culture of each organism pregrown for 18 hours. The plates were incubated at 37° C. for 48 hours, and 72 hours for fungi. The inhibition zones were measured in milimeters. Discs impregnated with DMSO were used as a control, and its inhibition zone was subtracted from the tested compound actual inhibition zone.
(§2) The antibacterial activity was screened against gram positive bacteria namely Bacillus cereus and Staphylococcus aureus and gram-negative bacterial strains namely Pseudomonas aeruginosa and Escherichia coli, while the antifungal activity was screened against Aspergillus flavus and Chrysosporium keratinophilum as shown in Table 1 and 2.

[1] = test system: Chrysosporium keratinophilum; assay: as above; settings: Sabouraud's dextrose agar, 72 hours
Procedure: as §1, §2

Escherichia coli = assay: Agar plate disc-diffusion, antibacterial activity (inhibition zone); settings: nutrient agar, 37° C., 48 hours
Procedure: as §1, §2

Pseudomonas aeruginosa = assay: as above; settings: nutrient agar, 37° C., 48 hours
Procedure: as §1, §2

Staphylococcus aureus = assay: as above; settings: nutrient agar, 37° C., 48 hours
Procedure: as §1, §2

Bacillus cereus = assay: as above; settings: nutrient agar, 37° C., 48 hours
Procedure: as §1, §2

[2] = A = concentration of comp. = 10,000 uL
[3] = B = concentration of comp. = 30,000 uL
[4] = C = concentration of comp. = 50,000 uL

| Structure (SMILES) | inhibition zone (Aspergillus flavus; [2]) | inhibition zone (Aspergillus flavus; [3]) | inhibition zone (Aspergillus flavus; [4]) | inhibition zone [1, 2] | inhibition zone [1, 3] | inhibition zone [1, 4] | inhibition zone (Escherichia coli; [2]) | inhibition zone (Escherichia coli; [3]) | inhibition zone (Escherichia coli; [4]) | inhibition zone (Pseudomonas aeruginosa; [2]) | inhibition zone (Pseudomonas aeruginosa; [3]) | inhibition zone (Pseudomonas aeruginosa; [4]) | inhibition zone (Staphylococcus aureus; [2]) | inhibition zone (Staphylococcus aureus; [3]) | inhibition zone (Staphylococcus aureus; [4]) | inhibition zone (Bacillus cereus; [2]) | inhibition zone (Bacillus cereus; [3]) | inhibition zone (Bacillus cereus; [4]) |
| --- | --- | --- | --- | --- | --- | --- | --- | --- | --- | --- | --- | --- | --- | --- | --- | --- | --- | --- |
| O=C(O)c1cn(C2CC2)c2cc(N3CCNCC3)c(F)cc2c1=O [Cip., ciprofloxacin] | 29 mm | 30 mm | 42 mm | 29 mm | 30 mm | 53 mm | 30 mm | 39 mm | 60 mm | 29 mm | 30 mm | 53 mm | 43 mm | 44 mm | 53 mm | 29 mm | 30 mm | 42 mm |
| COc1ccc(/C(N)=N/OC(=O)CSc2nnc(-c3ccccc3)o2)cc1OC [Compound 3, 3,4-dimethoxy-N′-(2-(5-phenyl-1,3,4-oxadiazol-2-ylthio)acetoxy)benzimidamide] | 23 mm | 27 mm | 40 mm | 24 mm | 26 mm | 40 mm | 26 mm | 35 mm | 50 mm | 20 mm | 24 mm | 37 mm | 24 mm | 27 mm | 43 mm | 25 mm | 29 mm | 41 mm |
